The results in this text go back to US20100234314A1, “IDARUBICIN FOR THE TREATMENT OF LYMPHOMA IN A DOG” (priority 2007, published 2010).

For series [1], the system named is CL-1 canine lymphoma cell line (T-cell LSA line). As to the kind of experiment: In vitro anti-proliferation assay (MTS), CL-1 cell line. Type of series: cell-based. The note with it: Canis lupus familiaris; CL-1, T-cell LSA line. An excerpt: (§1) (2) Ex vivo canine lymphoma nodal tissue. […] (3) In vitro Anti-Proliferation Assay Method.
(§2) (Mean Drug Treatment OD−Mean media blank OD)×100=% Control Proliferation
(§3) (Mean Untreated OD−Mean media blank OD)

Series [2] has as its system canine lymphoma cell lines. As to the kind of experiment: Anti-proliferation, canine lymphoma cell lines. The note with it: summary. The format is cell-based.
Description: as §1, §2, §3

Series [3] has as its system ex-vivo derived canine lymphoma cells (nodal tissue). As to the kind of experiment: In vitro anti-proliferation assay (MTS), ex vivo canine lymphoma nodal tissue. The note with it: for Inhibition of the proliferation of canine lymphoma nodal tissues: summary; for IC50: read-out: Anti-proliferation IC50.
Description: The study utilized an in vitro assay run with ex-vivo derived canine lymphoma cells and with established cell lines maintained over many passages using standard tissue culture techniques. Nodal tissues were obtained from canine lymphoma patients at the MSU Veterinary Clinic.
(2) Ex vivo canine lymphoma nodal tissue. Malignant lymph nodes were excised by veterinary staff at Michigan State University (MSU) Veterinary College, placed into transport media (Advanced RPMI 1640 complete medium supplemented with 10% Fetal Bovine Serum (FBS), 100 U/mL penicillin, 100 ug/mL streptomycin and 0.25 ug/mL Amphotercin B (Invitrogen/Gibco®). Nodes were processed within 24 hours of removal by mincing into tiny pieces and passing through a tissue sieve. Cell suspensions were spun at 200×g, supernatant was removed, and the cell pellet was resuspended in NH4Cl (0.15M) for 10 minutes at room temperature. The cell suspension was pelleted by centrifugation; the NH4Cl was removed and washed once with Hanks Balanced Salt Solution (HBSS), followed by re-suspension in Proliferation Medium (Advanced RPMI complete, 1% FBS, 50 nM 2-Mercaptoethanol, 100 U/mL penicillin, 100 ug/mL streptomycin and 0.25 ug/mL Amphotercin B). The cell suspension was then passed through a 100 μm nylon cell strainer (BD-Falcon) and counted using a hemacytometer. Cells were cultured in either Proliferation Medium alone, Proliferation Medium supplemented with 0.005% Pansorbin® (Heat inactivated, formalin-fixed Staphylococcus Aureus cells (SAC), Calbiochem), and 10 ng/mL canine IL-2 (R&D Systems), or Proliferation Medium supplemented with 125 ng/mL concavalin A (Sigma) and 125 ng/mL lipopolysaccamide (LPS; Calbiochem). (3) In vitro Anti-Proliferation Assay Method. Cells cultured in medium described above were plated in 96-well Costar plates (Corning) at a density of 1×10^3 cells/well (lymphoma cell lines) or 2×10^5 cells/well (lymph node cells) and exposed to various concentrations of test compounds for up to 5 days at 37° C. in a humidified incubator with 5% CO2. Effects on proliferation were determined using the CellTiter 96® Aqueous Non-Radioactive Cell Proliferation Assay (Promega) according to manufacturer's instructions. In general, proliferation was indirectly measured using a soluble tetrazolium salt (MTS) and an electron coupling agent. MTS bioreduction into a formazan product soluble in tissue culture medium was monitored by absorbance at 490 nm on a Spectramax plate reader using Softmax Pro 4.6 software (Molecular Devices). […] (4) Data Analysis: For nodal tissue, data were handled in the following manner through Prism 4.0 (Graphpad Software). Mean values from raw optical density values (OD) were calculated for the Un-stimulated, Simulated and all Drug Treatment (triplicates) and used in the following formula:
(Mean Drug Treatment OD−Mean Un-stim OD)×100=% Control Proliferation
(Mean Stim OD−Mean Un-stim OD)
Once calculated, these values for each drug concentration (or standard) were graphed and an IC50 calculated by a point to point analysis. Percent control values were not allowed to exceed 100% or fall below 0% for analysis of IC50 values.
For series [4], the system named is 3132 canine lymphoma cell line (B-cell LSA line). As to the kind of experiment: In vitro anti-proliferation assay (MTS), 3132 cell line. Type of series: cell-based. The note with it: Canis lupus familiaris; 3132, B-cell LSA line.
Description: as §1, §2, §3

Series [5] can be described thus: Oral bioavailability in dogs, effect of feeding. The note with it: dog. Type of series: in vivo.
The mark [6] stands for this setting: MSU LN 1, chemotherapy resistant B-cell LSA, stimulant SAC + IL-2.
Setting [7] is: MSU LN 1 ID618801, chemotherapy resistant B-cell LSA, stimulant LPS + ConA.
Setting [8] is: MSU LN 6, chemotherapy resistant T-cell LSA, stimulant SAC + IL-2.
Setting [9] is: MSU LN 6 ID401557, chemotherapy resistant T-cell LSA, stimulant LPS + ConA.
Setting [10] is: MSU LN 7 ID663780, chemotherapy resistant T-cell LSA, stimulant LPS + ConA.
Setting [11] is: MSU LN 8, de novo T-cell lymphoma, stimulant SAC + IL-2.
Where [12] appears, read: MSU LN 8 ID668165, de novo T-cell lymphoma, stimulant LPS + ConA.
Setting [13] is: MSU LN 10 ID401979, chemotherapy resistant B-cell LSA, stimulant LPS + ConA.

Read-outs that look alike come from different tables or passages of the source. Some results are limits rather than exact numbers.

Consider `COc1cccc2c1C(=O)c1c(O)c3c(c(O)c1C2=O)C[C@@](O)(C(=O)CO)C[C@@H]3O[C@H]1C[C@H](N)[C@H](O)[C@H](C)O1` [Doxorubicin, doxorubicin], for which the IC50 is 4.3 nM in series [1]; 11 nM in series [3] (setting [6]); 55 nM in series [3] (setting [7]); 13 nM in series [3] (setting [8]); 28 nM in series [3] (setting [9]); 10 nM in series [3] (setting [10]). The IC50 in series [3] (setting [11]) is 7 nM; in series [3] (setting [12]), 9 nM; in series [3] (setting [13]), greater than 100 nM. Besides, the “Inhibition of the proliferation of canine lymphoma cell lines” value in series [2] is listed as “inhibited”. In addition, the “Inhibition of the proliferation of canine lymphoma nodal tissues” value in series [3] is recorded as “dose dependent inhibition”.
`CC(=O)[C@]1(O)Cc2c(O)c3c(c(O)c2[C@@H](O[C@H]2C[C@H](N)[C@H](O)[C@H](C)O2)C1)C(=O)c1ccccc1C3=O` [Idarubicin, idarubicin]: the IC50 came to 2.7 nM in series [4]; 1.9 nM in series [1]; 7.5 nM in series [3] (setting [6]); 7.5 nM in series [3] (setting [7]); 2.5 nM in series [3] (setting [8]); 3 nM in series [3] (setting [9]). The IC50 in series [3] (setting [10]) worked out at 2.5 nM; in series [3] (setting [11]), 3 nM; in series [3] (setting [12]), 4 nM; in series [3] (setting [13]), 56 nM; in series [3] (MSU LN 11 ID671795, de novo B-cell LSA, stimulant LPS + ConA), 4 nM; in series [3] (MSU LN 14 ID403527, de novo T-cell LSA, stimulant Con A) it was 11 nM. Besides, the “Inhibition of the proliferation of canine lymphoma cell lines” value in series [2] is given as “inhibited”. Also, the “Oral bioavailability, effect of feeding” value in series [5] is “not adversely affected by feeding”. For the same molecule, the “Potency and cytotoxicity compared with doxorubicin” value in series [3] (all nodal and cell line lymphomas regardless of B or T-cell lineage) is “more potent and cytotoxic than doxorubicin”. For the same molecule, the “Inhibition of proliferation compared with doxorubicin” value in series [3] (all nodal tissue from dogs diagnosed with chemotherapy resistant lymphomas) is “more effective”. For the same molecule, in series [3], the “Inhibition of the proliferation of canine lymphoma nodal tissues” value is listed as “dose dependent inhibition”.
